US20070037253A1, “Methods and compositions for treatment of arthritis and cancer” (priority 2003, published 2007)
Entries after “also recorded” stand apart in the source; their conditions may differ. Where a SMILES comes first, the peptide text is derived from it.

How the values were obtained:
Format in all cases: biochemical
[1] = molecular target: T1, purified human synovial sPLA2 (human Type IIA sPLA2) (Homo sapiens, UniProt P14555); experiment: sPLA2 inhibition, 3H-arachidonate-labelled E. coli membrane assay; conditions: fixed peptide concentration (5 μM); 3H-labelled E. coli membrane assay; read-out: % Inhibition (mean ± SD)
T1 construct: purchased Cayman Chemicals, USA
T1 sequence (P14555 21-144): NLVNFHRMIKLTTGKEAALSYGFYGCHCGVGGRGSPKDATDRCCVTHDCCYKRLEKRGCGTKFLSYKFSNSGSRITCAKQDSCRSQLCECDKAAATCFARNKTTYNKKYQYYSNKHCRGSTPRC
Method: In brief, [^3H] arachidonate-labeled E. coli membranes (0.005 mCi/mL; 5.8 μCi/μmol, NEN) were used as substrate, and 100 mM Tris-HCl—25 mM CaCl2, pH 7.5 solution as an assay buffer. The reaction mixture contained 20 μL of substrate, 0.85 pmole of purified human synovial sPLA2 (human Type IIA sPLA2, Cayman Chemicals, USA), and an increasing concentrations of the family of synthetic peptides derived from the sequence of PIP. The final volume of the reaction mixture was adjusted to 250 μL with an assay buffer. After incubation of the mixture (37° C., 1 h) and termination of the reaction with 750 μL of chilled PBS containing 1% BSA, microfuge tubes containing the samples were centrifuged (10,000 g at 4° C. for 15 min), and 500 μL aliquots of the supernatant taken to measure the amount of [^3H]-labeled arachidonate released from the E. coli membrane using liquid scintillation counting (Multipurpose Scintillation Counter LS 6500; Beckman, USA). As controls, sPLA2 was pre-incubated with the assay buffer alone. All samples, including controls, were performed in triplicate and plotted as the percentage inhibition relative to negative controls.
A sigmoid dose response curve was generated to allow calculation of the IC50 values. All samples were performed in triplicate. Results were analyzed by nonlinear regression with GraphPad Prism (version 2.01) and expressed as the percentage of inhibition relative to control values.

[2] = molecular target: T2, MMP-2 (Homo sapiens, UniProt P08253); experiment: Gelatin zymography of human synovial fluid pre-incubated with inhibitors; conditions: 5 or 10 μM, pre-incubated 37° C. 1 h
T2 construct: from tissue; host or cells: human synovial fluid
T2 sequence (P08253 110-660): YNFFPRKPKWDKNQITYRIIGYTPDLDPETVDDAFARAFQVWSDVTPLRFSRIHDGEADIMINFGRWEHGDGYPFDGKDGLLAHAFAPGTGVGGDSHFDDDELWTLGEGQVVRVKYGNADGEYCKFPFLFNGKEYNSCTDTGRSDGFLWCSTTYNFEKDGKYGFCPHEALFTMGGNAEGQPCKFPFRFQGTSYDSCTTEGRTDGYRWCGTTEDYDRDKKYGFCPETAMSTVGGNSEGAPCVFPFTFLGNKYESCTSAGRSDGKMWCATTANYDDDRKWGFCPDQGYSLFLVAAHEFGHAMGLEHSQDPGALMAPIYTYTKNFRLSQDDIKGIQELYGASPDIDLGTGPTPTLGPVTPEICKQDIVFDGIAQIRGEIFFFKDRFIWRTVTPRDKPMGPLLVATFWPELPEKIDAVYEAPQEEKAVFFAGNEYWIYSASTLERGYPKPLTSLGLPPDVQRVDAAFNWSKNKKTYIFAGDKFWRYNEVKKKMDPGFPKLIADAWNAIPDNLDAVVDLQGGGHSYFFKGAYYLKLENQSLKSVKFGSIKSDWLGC
Method: (§1) (A) Samples containing human synovial fluid (5 μL) and 5 or 10 μM of peptides were pre-incubated at 37° C. for 1 h in Tris-HCl buffer prior to electrophoresis on 10% SDS-PAGE gel containing gelatin (0.1%). […] (B) The mean density (OD/mm2)±SD (n=3), representing MMP-2 activity, obtained by scanning the zymograms using the GS-710 calibrated imaging densitometer (Bio Rad, USA).
(§2) Gelatin zymography: human synovial fluid, purified human recombinant MMP-2 and -9 or APMA-activated concentrated culture supernatant samples (10 μL) was mixed (1:1) with Laemmli sample buffer, loaded on 4% acrylamide stacking gel and electrophoresed (120 V) at 4° C. on a 10% acrylamide-resolving minigel containing 0.1% gelatin. After electrophoresis for 1 h, the gels were soaked in 2.5% Triton X-100 on a shaker for 1 h, changing the solution after 30 min, to eliminate SDS. After overnight incubation in zymogen activation buffer [50 mM Tris-HCl, pH 7.5, containing 10 mM CaCl2 and 5 mM ZnCl2] at 37° C., the gels were rinsed in distilled water, and stained for 3 hr with […], after which clear bands of digested gelatin were clearly visible. The gels were briefly rinsed in distilled water and scanned by the Bio-Rad GS-710 Calibrated Imaging Densitometer.

[3] = molecular target: T3, MMP-9 (Homo sapiens, UniProt P14780); experiment: as above; conditions: co-incubated 1 h
T3 construct: Samples containing human synovial fluid (5 μL) and 5 or 10 μM of peptides were pre-incubated; from tissue; host or cells: human synovial fluid
Method: as §1, §2

T3 sequence (P14780 94-707): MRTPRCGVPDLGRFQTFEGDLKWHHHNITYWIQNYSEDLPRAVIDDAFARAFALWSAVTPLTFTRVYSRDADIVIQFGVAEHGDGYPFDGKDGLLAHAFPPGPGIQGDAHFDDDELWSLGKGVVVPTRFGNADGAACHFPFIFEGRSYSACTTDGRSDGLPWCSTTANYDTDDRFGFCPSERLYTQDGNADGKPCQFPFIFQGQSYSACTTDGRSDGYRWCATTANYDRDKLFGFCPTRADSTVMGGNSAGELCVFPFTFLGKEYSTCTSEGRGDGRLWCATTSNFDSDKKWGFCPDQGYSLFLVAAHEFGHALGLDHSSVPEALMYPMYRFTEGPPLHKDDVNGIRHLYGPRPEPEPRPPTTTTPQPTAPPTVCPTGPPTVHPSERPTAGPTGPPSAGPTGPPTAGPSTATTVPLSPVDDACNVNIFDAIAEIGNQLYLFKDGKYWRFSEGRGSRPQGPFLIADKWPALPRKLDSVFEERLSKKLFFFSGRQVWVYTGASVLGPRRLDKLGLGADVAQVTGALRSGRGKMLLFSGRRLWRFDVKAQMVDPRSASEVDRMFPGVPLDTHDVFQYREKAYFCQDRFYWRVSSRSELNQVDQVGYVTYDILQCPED

Structure (SMILES): CC[C@H](C)[C@H](NC(=O)[C@H](CC(=O)O)NC(=O)[C@@H](N)C(C)C)C(=O)N[C@@H](Cc1c[nH]cn1)C(=O)N[C@H](C(=O)N[C@@H](Cc1c[nH]c2ccccc12)C(=O)N[C@@H](CC(=O)O)C(=O)NCC(=O)N[C@H](C(=O)N[C@H](C(=O)N[C@@H](CC(=O)O)C(=O)N[C@H](C(=O)N[C@@H](Cc1c[nH]cn1)C(=O)N[C@H](C(=O)N[C@@H](Cc1c[nH]c2ccccc12)C(=O)N[C@@H](CC(=O)O)C(=O)NCC(=O)N[C@H](C(=O)O)C(C)C)C(C)C)[C@@H](C)CC)C(C)C)C(C)C)C(C)C [PIP [59-67] dimer] (H-VDIHVWDGVVDIHVWDGV-OH; N-terminus and C-terminus assumed)
- inhibition at 5 µM [1]: 74.5 ± 4.21%
- MMP-2 gelatinase activity (zymogram densitometry) vs control [2]: did not show any significant difference from the control; also recorded: insignificant
- MMP-9 gelatinase activity vs control [3]: insignificant
